Measured values published in patent US20240228443A1, “NOVEL MANUFACTURING METHOD OF D[…] PRECURSORS THEREOF” (GlaxoSmithKline Intellectual Property (No.2) Limited, priority 2021, published 2024).
Values after ≈ are worked out from the molar mass of the structure shown.

Test: Solubility by saturation of the solvent, filtration and determination of concentration in the supernatant
Type: physicochemical
Conditions: thermodynamic from solid
Procedure: The solubility of 5-acetyl-1,3-dicyclohexylpyrimidine-2,4,6(1H,3H,5H)-trione was measured in 29.5% v/v acetic anhydride-acetic acid (a mimic for the solvent composition at the end of Stage 1), acetic acid and water. The solubility was measured by saturation of the solvent with the component, filtration and determination of the component concentration in the supernatant.

CC(=O)C1C(=O)N(C2CCCCC2)C(=O)N(C2CCCCC2)C1=O [5-acetyl-1,3-dicyclohexylpyrimidine-2,4,6(1H,3H,5H)-trione]
solubility (organic solvent or mixture, in 29.5% v/v acetic anhydride-acetic acid at 15° C.): 43.7 mg/mL (≈ 131 mM) | solubility (organic solvent or mixture, in acetic acid at 20° C.): 62.3 mg/mL (≈ 186 mM) | solubility (in water at 25° C.): < 0.1 mg/mL
